Assay results published in ChEMBL document CHEMBL1201862, “PubChem BioAssay data set” (2004).
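Where inhibition never reached the appropriate level, the endpoint shown equals the highest concentration tested. Otherwise, values were interpolated linearly from a five-concentration, 48-hour dose response in 96-well plates. The concentration for 50% growth inhibition is given as GI50.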 The source made the active and inactive calls. Rule as the data show it: active = GI50 up to about 1.1 µM and inactive = higher.

Legend:
Test in all cases: DTP human tumour cell line panel, 48 h
[1] = test system: CAKI-1
[2] = test system: COLO 205
[3] = test system: HL-60
[4] = test system: HOP-62
[5] = test system: HT-29
[6] = test system: IGROV-1
[7] = test system: KM12
[8] = test system: LOX IMVI
[9] = test system: M14
[10] = test system: OVCAR-4
[11] = test system: OVCAR-5
[12] = test system: OVCAR-8
[13] = test system: RPMI-8226
[14] = test system: SF-295
[15] = test system: SK-OV-3
[16] = test system: SN12C
[17] = test system: SR
[18] = test system: UACC-62
[19] = test system: UO-31

Measured: GI50

O=C(CC1Sc2ccccc2NC1=O)Nc1ccc(Cl)cc1 (stereo unspecified)
inactive: [1] > 100 µM | [2] > 100 µM | [3] > 100 µM | [4] > 100 µM | [5] > 100 µM | [6] 86.3 µM | [7] > 100 µM | [8] > 100 µM | [9] 92.5 µM | [10] 18.2 µM | [11] > 100 µM | [12] 37.9 µM | [13] > 100 µM | [14] > 100 µM | [15] > 100 µM | [16] > 100 µM | [17] > 100 µM | [18] 23.9 µM | [19] > 100 µM

CCCCCC(/C=C/c1ncccc1OCCCCCC(=O)O)=N\NC1=NCCN1
inactive: [1] > 100 µM | [2] 53.8 µM | [3] 57.8 µM | [4] > 100 µM | [5] > 100 µM | [6] > 100 µM | [7] 54.3 µM | [8] 74 µM | [9] > 100 µM | [10] 78.7 µM | [11] > 100 µM | [12] > 100 µM | [13] 29.4 µM | [14] > 100 µM | [15] > 100 µM | [16] 94.4 µM | [17] 39.4 µM | [18] 44.1 µM | [19] > 100 µM

Clc1ccccc1C(n1ncc2ccccc21)n1ncc2ccccc21
inactive: [1] 30.6 µM | [3] 18.6 µM | [4] > 100 µM | [5] 35.9 µM | [6] > 10 µM | [7] 25.7 µM | [8] 49.9 µM | [9] 31 µM | [10] 51.6 µM | [11] 37.7 µM | [12] > 100 µM | [13] 18.2 µM | [14] 64.6 µM | [15] > 10 µM | [16] 65.2 µM | [17] 27 µM | [18] > 10 µM | [19] 31.3 µM

NC1C(O)C(O)C(CO)OC1n1cc(F)c(=O)[nH]c1=O (stereo unspecified)
inactive: [1] > 100 µM | [2] > 100 µM | [3] > 100 µM | [5] > 100 µM | [7] > 100 µM | [8] > 100 µM | [10] > 100 µM | [11] > 100 µM | [13] > 100 µM | [14] > 100 µM | [15] > 100 µM | [16] > 100 µM | [17] > 100 µM

COC(=O)C1=C(C)N2CCOC2CC1c1ccccc1 (stereo unspecified)
inactive: [1] > 100 µM | [2] > 100 µM | [3] 53.5 µM | [4] > 100 µM | [5] > 100 µM | [6] > 100 µM | [7] > 100 µM | [9] > 100 µM | [10] > 100 µM | [12] > 100 µM | [13] 40.4 µM | [14] > 100 µM | [17] 78.9 µM | [18] > 100 µM | [19] > 100 µM

COc1cc(-c2cc(O)c3cc4c(cc3n2)OCO4)cc(OC)c1OC
inactive: [1] > 100 µM | [2] > 100 µM | [3] > 100 µM | [4] 24.5 µM | [5] > 100 µM | [6] > 100 µM | [7] > 100 µM | [8] 59.3 µM | [9] > 100 µM | [10] > 100 µM | [12] 75.9 µM | [13] > 100 µM | [15] 37.5 µM | [16] 70.1 µM | [17] 71 µM | [18] 51.5 µM | [19] > 100 µM

COC(=O)c1sc(=O)n(-c2ccccc2)c1SCc1ccccc1
inactive: [2] > 100 µM | [3] > 100 µM | [4] > 100 µM | [5] > 100 µM | [6] > 100 µM | [7] > 100 µM | [8] > 100 µM | [9] > 100 µM | [10] > 100 µM | [11] > 100 µM | [12] > 100 µM | [13] > 100 µM | [14] > 100 µM | [15] > 100 µM | [16] > 100 µM | [17] > 100 µM | [18] > 100 µM | [19] > 100 µM

CN1C2CCC1/C(=C/c1cccc3c1OCO3)C(=O)/C2=C\c1cccc2c1OCO2
inactive: [2] > 100 µM | [3] > 100 µM | [4] 12.3 µM | [5] > 100 µM | [6] 30.1 µM | [7] > 100 µM | [8] > 100 µM | [9] 59 µM | [11] > 100 µM | [12] > 100 µM | [13] > 100 µM | [14] 22.1 µM | [15] 85.7 µM | [16] > 100 µM | [17] > 100 µM | [18] 14.3 µM | [19] > 100 µM
